In patent publication US12252524B2, “GIP/GLP1 co-agonist compounds” (Eli Lilly and Company, priority 2018, dated 2025):
Numbered stars: 1 amine (or outer) side, 2 acyl side, 3 side chain; on linkers, the order of the positions; unused ones are H or OH. Square brackets hold non-standard residues; d marks the D form. Side chains are listed from the residue outwards. Peptide text beside a SMILES is read from it. * marks the point of attachment. C20 diacid = O=C(O)CCCCCCCCCCCCCCCCCCC(=O)*; γGlu = O=C(O)[C@H](CCC(=O)[*:2])N[*:1]; αMeL = CC(C)C[C@](C)(N)C(=O)O; Orn = NCCC[C@H](N)C(=O)O; AEEA = NCCOCCOCC(=O)O; Aib = CC(C)(N)C(=O)O

How the values were obtained:
human GLP-1R [1] = target: T1, human GLP-1R (Homo sapiens, UniProt P43220); assay: GLP-1R HEK293 cell membrane [35S]GTPγS binding assay; type: biochemical; parameters: expressed in transfected cells; host or cells: HEK293 cells expressing human GLP-1R; membranes; conditions: HEK293 cell membranes expressing human GLP-1R, [35S]GTPγS binding; read-out: hGLP1R GTPgS Rel EC50 nM (SEM, n)
Procedure, shortened: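 Agonist-driven Gαs activation read as [35S]GTPγS ([…]) binding to receptor-expressing HEK293 membranes, 30 min at room temperature, pH 7.4. Detection by anti-Gαs immunocapture on scintillation beads; EC50 derived from four-parameter logistic concentration-response fit.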

human GLP-1R [2] = target: T1, human GLP-1R; assay: GLP-1R CHO cell β-arrestin recruitment assay; type: cell-based; parameters: host or cells: CHO-K1 PathHunter cells, assay-ready frozen; conditions: for EC50: CHO-K1 cells, PathHunter β-arrestin-2 recruitment, 0.1% casein, read-out: hGLP1R B-Arrestin2 Rel EC50 uM (SEM, n); for hGLP1R B-Arrestin2 % Top: normalized to GLP-1 maximum control
Procedure, shortened: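 Peptide-induced β-arrestin-2 recruitment measured by enzyme-fragment complementation luminescence after 90 min at 37 °C plus 60 min detection at RT.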

[3] = target: human GLP-1 receptor (GLP-1R) (Homo sapiens, UniProt P43220); assay: cAMP pharmacological functional assay in presence of casein, hGLP-1R; type: cell-based; conditions: HEK293 cells expressing hGLP-1R, 0.1% Casein, geometric mean; read-out: hGLP1R cAMP Rel EC50 nM (SEM, n)
human Gcg receptor = target: T2, human Gcg receptor (Homo sapiens, UniProt P47871); assay: [125I]-Glucagon binding (SPA), human Gcg receptor; conditions: read-out: hGLcgR Ki, nM (SEM, n)
T2 construct: expressed in transfected cells; crude membranes
Procedure, shortened: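 Crude membranes from cells expressing the receptor, prepared by hypotonic lysis in 50 mM Tris HCl pH 7.5 with protease inhibitors, homogenization and differential centrifugation, were used in a WGA-bead SPA. Binding buffer: 25 mM HEPES pH 7.4, 2.5 mM CaCl2, 1 mM MgCl2, bacitracin, Tween-20.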

[4] = target: T3, gastric inhibitory peptide receptor (GIPR) (Homo sapiens, UniProt P48546); assay: cAMP pharmacological functional assay in presence of casein, hGIPR; type: cell-based; conditions: HEK293 cells expressing hGIPR, 0.1% Casein, geometric mean; read-out: hGIPR cAMP Rel EC50 nM (SEM, n)
T3 sequence (P48546 22-466): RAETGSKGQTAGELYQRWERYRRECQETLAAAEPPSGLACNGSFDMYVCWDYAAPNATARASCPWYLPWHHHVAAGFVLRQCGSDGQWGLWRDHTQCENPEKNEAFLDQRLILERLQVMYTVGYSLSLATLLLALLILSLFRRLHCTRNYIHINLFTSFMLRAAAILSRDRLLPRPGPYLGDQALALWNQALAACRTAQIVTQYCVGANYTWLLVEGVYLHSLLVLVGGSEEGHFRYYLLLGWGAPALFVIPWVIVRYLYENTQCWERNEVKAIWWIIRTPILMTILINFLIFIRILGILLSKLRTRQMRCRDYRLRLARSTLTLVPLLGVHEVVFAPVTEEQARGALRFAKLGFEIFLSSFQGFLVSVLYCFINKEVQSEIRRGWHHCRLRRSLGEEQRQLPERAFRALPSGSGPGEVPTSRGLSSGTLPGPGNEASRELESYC

human GIP receptor = target: T4, human GIP receptor (Homo sapiens, UniProt P48546); assay: [125I]-GIP binding (SPA), human GIP receptor; conditions: read-out: hGIPR Ki, nM (SEM, n)
T4 construct: expressed in transfected cells; crude membranes
T4 sequence (P48546 22-466): T3 sequence (P48546 22-466)

human GLP-1R [5] = target: T1, human GLP-1R; assay: [125I]-GLP-1 binding (SPA), human GLP-1 receptor; parameters: expressed in transfected cells; crude membranes; conditions: read-out: hGLP1R Ki, (nM) (SEM, n)
Procedure, shortened: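 Crude-membrane binding assay; one membrane prep included 1 mM MgCl2 and 25 units/ml DNAse I during lysis. Assay buffer at pH 7.4 contains 0.1% (w/v) bacitracin and 0.003% (w/v) TWEEN-20. Ki is reported as geometric mean.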

T2 sequence (P47871 26-477): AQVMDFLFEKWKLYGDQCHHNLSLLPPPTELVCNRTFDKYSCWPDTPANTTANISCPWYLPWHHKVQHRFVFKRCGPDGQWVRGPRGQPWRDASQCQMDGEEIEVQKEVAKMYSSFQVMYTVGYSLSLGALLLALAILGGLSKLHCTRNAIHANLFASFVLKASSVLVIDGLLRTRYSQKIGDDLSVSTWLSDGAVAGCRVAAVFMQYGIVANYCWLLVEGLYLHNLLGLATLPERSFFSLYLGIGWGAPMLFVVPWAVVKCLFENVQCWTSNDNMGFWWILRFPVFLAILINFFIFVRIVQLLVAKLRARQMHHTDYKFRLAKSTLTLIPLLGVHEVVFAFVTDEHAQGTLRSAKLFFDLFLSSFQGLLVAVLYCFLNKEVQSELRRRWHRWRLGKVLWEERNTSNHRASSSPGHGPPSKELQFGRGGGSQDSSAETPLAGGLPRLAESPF
Chain of human GLP-1 receptor (GLP-1R) (P43220 24-463): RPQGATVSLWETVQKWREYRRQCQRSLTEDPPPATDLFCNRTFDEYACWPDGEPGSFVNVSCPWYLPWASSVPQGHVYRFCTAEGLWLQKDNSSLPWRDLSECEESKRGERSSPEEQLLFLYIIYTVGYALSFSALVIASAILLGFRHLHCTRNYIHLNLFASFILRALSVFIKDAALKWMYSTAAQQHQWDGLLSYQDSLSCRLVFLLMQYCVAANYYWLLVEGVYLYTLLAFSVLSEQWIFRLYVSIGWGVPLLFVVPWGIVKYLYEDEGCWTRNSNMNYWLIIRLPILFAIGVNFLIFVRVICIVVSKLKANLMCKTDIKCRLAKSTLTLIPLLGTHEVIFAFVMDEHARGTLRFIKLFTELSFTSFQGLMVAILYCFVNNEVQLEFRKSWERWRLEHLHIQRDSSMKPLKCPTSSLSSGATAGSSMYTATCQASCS
T1 sequence (P43220 24-463): as above

Row | Compound | EC50 (human GLP-1R [1]) | EC50 (human GLP-1R [2]) | hGLP1R B-Arrestin2 % Top (human GLP-1R [2]) | EC50 [3] | Ki (human Gcg receptor) | EC50 [4] | Ki (human GIP receptor) | Ki (human GLP-1R [5])
1 | CC[C@H](C)[C@H](NC(=O)[C@H](CC(C)C)NC(=O)[C@H](Cc1ccc(O)cc1)NC(=O)[C@H](CCC(=O)O)NC(=O)[C@@H](NC(=O)[C@H](Cc1ccccc1)NC(=O)[C@H](C)NC(=O)C(C)(C)NC(=O)[C@H](CCC(N)=O)NC(=O)[C@H](C)NC(=O)[C@H](CCCCNC(=O)COCCOCCNC(=O)COCCOCCNC(=O)CC[C@H](NC(=O)CCCCCCCCCCCCCCCCCCC(=O)O)C(=O)O)NC(=O)[C@H](CCCN)NC(=O)[C@H](CC(=O)O)NC(=O)[C@H](CC(C)C)NC(=O)[C@](C)(CC(C)C)NC(=O)[C@@H](NC(=O)[C@H](CO)NC(=O)[C@H](Cc1ccc(O)cc1)NC(=O)[C@H](CC(=O)O)NC(=O)[C@H](CO)NC(=O)[C@@H](NC(=O)[C@H](Cc1ccccc1)NC(=O)[C@@H](NC(=O)CNC(=O)[C@H](CCC(=O)O)NC(=O)C(C)(C)NC(=O)[C@H](N)Cc1ccc(O)cc1)[C@@H](C)O)[C@@H](C)O)[C@@H](C)CC)[C@@H](C)CC)C(=O)N[C@@H](C)C(=O)NCC(=O)NCC(=O)N1CCC[C@H]1C(=O)N[C@@H](CO)C(=O)N[C@@H](CO)C(=O)NCC(=O)N[C@@H](C)C(=O)N1CCC[C@H]1C(=O)N1CCC[C@H]1C(=O)N1CCC[C@H]1C(=O)N[C@@H](CO)C(N)=O [Example 346] (H-[dY][Aib]EGTFTSDYSI[αMeL]LD[Orn]K([AEEA-AEEA-γGlu-C20 diacid])AQ[Aib]AFIEYLIAGGPSSGAPPPS-NH2) | 0.737 nM | 0.00325 µM | 19.3% | 0.128 nM | 310 nM | 0.144 nM | 0.0559 nM | 1.67 nM
2 | CC[C@H](C)[C@H](NC(=O)[C@H](CC(C)C)NC(=O)[C@H](Cc1ccc(O)cc1)NC(=O)[C@H](CCC(=O)O)NC(=O)[C@@H](NC(=O)[C@H](Cc1ccccc1)NC(=O)[C@H](CCC(=O)O)NC(=O)C(C)(C)NC(=O)[C@H](CCC(N)=O)NC(=O)[C@H](C)NC(=O)[C@H](CCCCNC(=O)COCCOCCNC(=O)COCCOCCNC(=O)CC[C@H](NC(=O)CCCCCCCCCCCCCCCCCCC(=O)O)C(=O)O)NC(=O)[C@H](CCCN)NC(=O)[C@H](CC(=O)O)NC(=O)[C@H](CC(C)C)NC(=O)[C@](C)(CC(C)C)NC(=O)[C@@H](NC(=O)[C@H](CO)NC(=O)[C@H](Cc1ccc(O)cc1)NC(=O)[C@H](CC(=O)O)NC(=O)[C@H](CO)NC(=O)[C@@H](NC(=O)[C@H](Cc1ccccc1)NC(=O)[C@@H](NC(=O)CNC(=O)[C@H](CCC(=O)O)NC(=O)C(C)(C)NC(=O)[C@H](N)Cc1ccc(O)cc1)[C@@H](C)O)[C@@H](C)O)[C@@H](C)CC)[C@@H](C)CC)C(=O)N[C@@H](C)C(=O)NCC(=O)NCC(=O)N1CCC[C@H]1C(=O)N[C@@H](CO)C(=O)N[C@@H](CO)C(=O)NCC(=O)N[C@@H](C)C(=O)N1CCC[C@H]1C(=O)N1CCC[C@H]1C(=O)N1CCC[C@H]1C(=O)N[C@@H](CO)C(N)=O [Example 349] (H-[dY][Aib]EGTFTSDYSI[αMeL]LD[Orn]K([AEEA-AEEA-γGlu-C20 diacid])AQ[Aib]EFIEYLIAGGPSSGAPPPS-NH2) | 0.464 nM | 0.0151 µM | 18.4% | 0.121 nM | > 1060 nM | 0.117 nM | 0.08 nM | 1.72 nM
3 | CC[C@H](C)[C@H](NC(=O)[C@H](CC(C)C)NC(=O)[C@H](Cc1ccc(O)cc1)NC(=O)[C@@H](CCC(=O)O)NC(=O)[C@@H](NC(=O)[C@H](Cc1ccccc1)NC(=O)[C@H](C)NC(=O)C(C)(C)NC(=O)[C@H](CCC(N)=O)NC(=O)[C@H](C)NC(=O)[C@H](CCCCNC(=O)COCCOCCNC(=O)COCCOCCNC(=O)CC[C@H](NC(=O)CCCCCCCCCCCCCCCCCCC(=O)O)C(=O)O)NC(=O)[C@H](CCCCN)NC(=O)[C@H](CC(=O)O)NC(=O)[C@H](CC(C)C)NC(=O)[C@](C)(CC(C)C)NC(=O)[C@@H](NC(=O)[C@H](CO)NC(=O)[C@H](Cc1ccc(O)cc1)NC(=O)[C@H](CC(=O)O)NC(=O)[C@H](CO)NC(=O)[C@@H](NC(=O)[C@H](Cc1ccccc1)NC(=O)[C@@H](NC(=O)CNC(=O)[C@H](CCC(=O)O)NC(=O)C(C)(C)NC(=O)[C@H](N)Cc1ccc(O)cc1)[C@@H](C)O)[C@@H](C)O)[C@@H](C)CC)[C@@H](C)CC)C(=O)N[C@@H](C)C(=O)NCC(=O)NCC(=O)N1CCC[C@H]1C(=O)N[C@@H](CO)C(=O)N[C@@H](CO)C(=O)NCC(=O)N[C@@H](C)C(=O)N1CCC[C@H]1C(=O)N1CCC[C@H]1C(=O)N1CCC[C@H]1C(=O)N[C@@H](CO)C(N)=O [Example 352] (H-[dY][Aib]EGTFTSDYSI[αMeL]LDKK([AEEA-AEEA-γGlu-C20 diacid])AQ[Aib]AFI[dE]YLIAGGPSSGAPPPS-NH2) | 0.552 nM | 0.00421 µM | 17.4% | 0.142 nM | > 1030 nM | 0.127 nM | 0.0726 nM | 3.03 nM
4 | CC[C@H](C)[C@H](NC(=O)[C@H](CC(C)C)NC(=O)[C@H](Cc1ccc(O)cc1)NC(=O)[C@@H](CCC(=O)O)NC(=O)[C@@H](NC(=O)[C@H](Cc1ccccc1)NC(=O)[C@H](CCC(=O)O)NC(=O)C(C)(C)NC(=O)[C@H](CCC(N)=O)NC(=O)[C@H](C)NC(=O)[C@H](CCCCNC(=O)COCCOCCNC(=O)COCCOCCNC(=O)CC[C@H](NC(=O)CCCCCCCCCCCCCCCCCCC(=O)O)C(=O)O)NC(=O)[C@H](CCCN)NC(=O)[C@H](CC(=O)O)NC(=O)[C@H](CC(C)C)NC(=O)[C@](C)(CC(C)C)NC(=O)[C@@H](NC(=O)[C@H](CO)NC(=O)[C@H](Cc1ccc(O)cc1)NC(=O)[C@H](CC(=O)O)NC(=O)[C@H](CO)NC(=O)[C@@H](NC(=O)[C@H](Cc1ccccc1)NC(=O)[C@@H](NC(=O)CNC(=O)[C@H](CCC(=O)O)NC(=O)C(C)(C)NC(=O)[C@H](N)Cc1ccc(O)cc1)[C@@H](C)O)[C@@H](C)O)[C@@H](C)CC)[C@@H](C)CC)C(=O)N[C@@H](C)C(=O)NCC(=O)NCC(=O)N1CCC[C@H]1C(=O)N[C@@H](CO)C(=O)N[C@@H](CO)C(=O)NCC(=O)N[C@@H](C)C(=O)N1CCC[C@H]1C(=O)N1CCC[C@H]1C(=O)N1CCC[C@H]1C(=O)N[C@@H](CO)C(N)=O [Example 354] (H-[dY][Aib]EGTFTSDYSI[αMeL]LD[Orn]K([AEEA-AEEA-γGlu-C20 diacid])AQ[Aib]EFI[dE]YLIAGGPSSGAPPPS-NH2; N-terminus assumed) | 0.967 nM | 0.255 µM | 22.7% | 0.54 nM | > 953 nM | 0.233 nM | 0.175 nM | 7.85 nM
